Values of other authors in US20020177547A1, “Pharmaceutical compositions for treating or preventing cancer” (priority 2001, published 2002).

Tests used:
[1] = test system: hgp100 TILs
[2] = test system: peripheral blood lymphocytes (PBL) of melanoma patients; conditions: repeated in vitro stimulation of PBL

## KTWGQYWQV [peptide 1]
[1]
  recognition by TILs: immunodominant

## VLYRYGSFSV (listed as Homo sapiens) [Peptide 3]
[2]
  induction of melanoma-reactive CTLs: able to induce melanoma-reactive CTLs

## ITDQVPFSV [peptide 2]
[1]
  recognition by TILs: immunodominant
